US20230332232A1, “COMPOSITIONS AND METHODS FOR DIAGNOSING AND TREATING A DYSTONIA” (Duke University, priority 2020, published 2023)

Key:
[1] = tested on: wild-type (WT) murine embryonic fibroblasts (MEFs); assay: microRNA-seq of EVs from WT MEFs treated with drug, compared with non-treated WT MEFs; assay type: cell-based, mouse; conditions: for ISRIB Direction Same as dE?: EVs of WT MEFs
Method: In addition to proteomic analysis, total RNA-seq and microRNA-seq was performed on RNA isolated in parallel from the EV samples of Cohort 2. As with the proteomic analysis, one biological replicate was prepared from 3 distinct biological clonal cell lines for each genotype. Here, EVs were isolated from conditioned cell culture media by 18 hour ultracentrifugation at 100,000 g. RNA was extracted using the Qiagen miRNeasy Micro Kit (Cat. No. 217084) according to the manufacturer's protocol. Two RNA fractions were extracted from each sample, one enriched in coding and non-coding RNA species>200 nt (“Total RNA” fraction) and one enriched for small RNAs<200 nt (“miRNA” fraction).
RNA samples were then submitted to the Duke Sequencing and Genomic Technologies shared resource for further quality control and sequencing. Samples were assessed for concentration and integrity by Qubit and Fragment Analyzer. The miRNA fractions were 4.16 ng/μL-47.57 ng/μL and total RNA fractions were 3.8 ng/μL-43.6 ng/μL. The small RNA library was prepared using the QIAseq miRNA Library Kit (Cat No./ID: 331505) and sequenced on the Illumina NextSeq 500 High-Output platform with 75 bp single-reads. The total RNA library was prepared using the Illumina TruSeq Stranded Total RNA-seq Kit with Ribozero Gold ribosomal RNA reduction and sequenced on the Illumina NovaSeq 6000 S1 platform with 100 bp paired-end reads. Sequencer lane pooling and read depth are attached in the Excel data summary (See “RNA QC” Tab).
Data processing and analysis were performed in collaboration with the Duke Genomic Analysis and Bioinformatics shared resource. RNA-seq data was processed using the TrimGalore toolkit (http://www.bioinformatics.babraham.ac.uk/projects/trim_galore), which employs Cutadapt(Martin M. (2011) EMBnet.journal. 17(1):10-12) to trim low quality bases and Illumina sequencing adapters from the 3′ end of the reads. Only reads that were 20 nt or longer after trimming were kept for further analysis. Reads were mapped to the mouse genome and transcriptome (Kersey P J, et al. (2012) Nucleic Acids Res. 40(Database issue):D91-97) using the STAR RNA-seq alignment tool (Dobin A, et al. (2013). Bioinformatics. 29(1):15-21). If the reads mapped to a single genomic location, then they were kept for subsequent analysis. Gene counts were compiled using the HTSeq tool (http://www-huber.embl.de/users/anders/HTSeq/). Only genes that had at least 10 reads in any given library were used in subsequent analysis. Normalization and differential expression was carried out using the DESeq26 Bioconductor (Huber W, et al. (2015) Nat Methods. 12(2):115-121) package with the R statistical programming environment (www.r-project.org). The false discovery rate was calculated to control for multiple hypothesis testing and p-values were adjusted to an FDR of 5%.
694 miRNAs were initially examined with respect to QC, genotype, RTV effects, and ISRIB effects. This subset was the “Full miRNA” subset. FIG. 9A and FIG. 9B show the RTV effect on EV composition in DYT1 cells compared to WT cells for 279 miRNAs, respectively.

WT TorsinA = conditions: cited from earlier work
[2] = tested on: DYT1 knockin (Tor1a^delGAG/+) murine embryonic fibroblasts (MEFs); assay: Untargeted LC/MS/MS proteomics of EVs from DYT1 MEFs exposed 24 hours to drug, compared with untreated DYT1 (Het) MEFs; assay type: cell-based, mouse
[3] = ISRIB-treated vs non-treated WT MEF EVs

O=C(COc1ccc(Cl)cc1)NC1CCC(NC(=O)COc2ccc(Cl)cc2)CC1 (stereo not shown) [ISRIB]
mmu-miR-147-5p: ISRIB Direction Same as dE? [1, 3]: yes
mmu-miR-147-5p: ISRIBvWT Z Score [1, 3]: −0.31
mmu-miR-181a-1-3p: ISRIBvWT Z Score [1, 3]: −0.20
mmu-miR-331-5p: ISRIBvWT Z Score [1, 3]: 0.56
mmu-miR-668-3p: ISRIBvWT Z Score [1, 3]: −1.49
mmu-miR-1930-5p: ISRIB Direction Same as dE? [1, 3]: yes
mmu-miR-1930-5p: ISRIBvWT Z Score [1, 3]: 0.71
mmu-miR-1943-5p: ISRIBvWT Z Score [1, 3]: −1.07
mmu-miR-1955-5p: ISRIBvWT Z Score [1, 3]: 1.21
mmu-miR-3072-5p: ISRIBvWT Z Score [1, 3]: 0.00
mmu-miR-3076-3p: ISRIBvWT Z Score [1, 3]: 0.25
mmu-miR-3088-3p: ISRIBvWT Z Score [1, 3]: −0.45
mmu-miR-6936-3p: ISRIBvWT Z Score [1, 3]: −0.38
mmu-miR-7224-3p: ISRIB Direction Same as dE? [1, 3]: yes
mmu-miR-7224-3p: ISRIBvWT Z Score [1, 3]: −1.07
mmu-miR-467d-3p: ISRIB Direction Same as dE? [1, 3]: yes
mmu-miR-467d-3p: ISRIBvWT Z Score [1, 3]: −0.71
ISRIB Direction Same as dE? ([1]; mmu-let-7f-5p): yes
ISRIB Direction Same as dE? ([1]; mmu-let-7i-5p): yes
ISRIB Direction Same as dE? ([1]; mmu-miR-30e-5p): yes
ISRIB Direction Same as dE? ([1]; mmu-miR-19b-3p): yes
ISRIB Direction Same as dE? ([1]; mmu-miR-22-3p): yes
ISRIB Direction Same as dE? ([1]; mmu-miR-26b-Sp): yes
ISRIB Direction Same as dE? ([1]; mmu-miR-30a-5p): yes
ISRIB Direction Same as dE? ([1]; mmu-miR-30c-5p): yes
ISRIB Direction Same as dE? ([1]; mmu-miR-31-5p): yes
ISRIB Direction Same as dE? ([1]; mmu-miR-34a-5p): yes
ISRIB Direction Same as dE? ([1]; mmu-miR-34c-5p): yes
ISRIB Direction Same as dE? ([1]; mmu-miR-93-5p): yes
ISRIB Direction Same as dE? ([1]; mmu-miR-96-5p): yes
ISRIB Direction Same as dE? ([1]; mmu-miR-103-3p): yes
ISRIB Direction Same as dE? ([1]; mmu-miR-125b-1-3p): yes
ISRIB Direction Same as dE? ([1]; mmu-miR-130b-3p): yes
ISRIB Direction Same as dE? ([1]; mmu-miR-135a-5p): yes
ISRIB Direction Same as dE? ([1]; mmu-miR-140-3p): yes
ISRIB Direction Same as dE? ([1]; mmu-miR-148a-3p): yes
ISRIB Direction Same as dE? ([1]; mmu-miR-182-5p): yes
ISRIB Direction Same as dE? ([1]; mmu-miR-183-5p): yes
ISRIB Direction Same as dE? ([1]; mmu-miR-187-3p): yes
ISRIB Direction Same as dE? ([1]; mmu-miR-192-5p): yes
ISRIB Direction Same as dE? ([1]; mmu-miR-199a-3p): yes
ISRIB Direction Same as dE? ([1]; mmu-miR-199b-3p): yes
ISRIB Direction Same as dE? ([1]; mmu-miR-296-3p): yes
ISRIB Direction Same as dE? ([1]; mmu-miR-298-5p): yes
ISRIB Direction Same as dE? ([1]; mmu-miR-344-3p): yes
ISRIB Direction Same as dE? ([1]; mmu-miR-362-3p): yes
ISRIB Direction Same as dE? ([1]; mmu-miR-362-5p): yes
ISRIB Direction Same as dE? ([1]; mmu-miR-532-5p): yes
ISRIB Direction Same as dE? ([1]; mmu-miR-542-5p): yes
ISRIB Direction Same as dE? ([1]; mmu-miR-671-5p): yes
ISRIB Direction Same as dE? ([1]; mmu-miR-1291): yes
ISRIB Direction Same as dE? ([1]; mmu-miR-3535): yes
ISRIB Direction Same as dE? ([1]; mmu-miR-5121): yes
ISRIB Direction Same as dE? ([1]; mmu-miR-30h-5p): yes
ISRIB Direction Same as dE? ([1]; mmu-miR-344d-3p): yes
subcellular localization of WT TorsinA (WT TorsinA): alter the normal subcellular localization of WT TorsinA in a way that was more similar to the distribution of dE TorsinA in DYT1

O=C(/C=C/c1ccccc1)NC(NC(=S)Nc1cccc2cccnc12)C(Cl)(Cl)Cl (stereo not shown) [SAL, Salubrinal]
SAL Direction Opposite ISRIB? ([2]; EV protein: ATP- binding cassette sub-family [?] member 1): yes
SAL Direction Opposite ISRIB? ([2]; EV protein: Nerine arginine-rich splicing factor [?]): yes
